Source: the NIST ThermoML archive (doi:10.1021/acs.jced.8b00452)
Values joined by “and” are separate entries in the source; they are usually repeats but may differ in a detail not shown here. Equal values may be shown once. ± gives the expanded uncertainty stated by the source.

Details: isochoric method

C=CC(F)(F)F [1,1,1-trifluoro-2-propene]
Details | mass density [kg/m3]
328 K, 2263.6 kPa, Liquid | 899.4 ± 1.4
330 K, 1111.5 kPa, Gas | 50 ± 0.2
330 K, 3005.2 kPa, Liquid | 899.2 ± 1.4
333 K, 4120.1 kPa, Liquid | 899 ± 1.4
335 K, 4863.3 kPa, Liquid | 898.9 ± 1.4
338 K, 5981.5 kPa, Liquid | 898.8 ± 1.4
340 K, 1167.6 kPa, Gas | 49.9 ± 0.1
340 K, 6726 kPa, Liquid | 898.7 ± 1.4
348 K, 2175.9 kPa, Liquid | 796.5 ± 1.2
349 K, 2433.4 kPa, Liquid | 796.4 ± 1.2
350 K, 1222.4 kPa, Gas | 49.9 ± 0.1
350 K, 2692.4 kPa, Liquid | 796.4 ± 1.2
351 K, 2951.1 kPa, Liquid | 796.4 ± 1.2
352 K, 3211.8 kPa, Liquid | 796.4 ± 1.2
353 K, 3472 kPa, Liquid | 796.3 ± 1.2
354 K, 3732.3 kPa, Liquid | 796.3 ± 1.2
355 K, 2036.4 kPa, Gas | 99.8 ± 0.2
355 K, 3993.5 kPa, Liquid | 796.3 ± 1.2
356 K, 4255.7 kPa, Liquid | 796.3 ± 1.2
357 K, 4517.5 kPa, Liquid | 796.2 ± 1.2
358 K, 4781.3 kPa, Liquid | 796.2 ± 1.2
360 K, 1276.2 kPa, Gas | 49.9 ± 0.1
360 K, 2101.2 kPa, Gas | 99.8 ± 0.2
360 K, 5309.1 kPa, Liquid | 796.2 ± 1.2
362 K, 5836.4 kPa, Liquid | 796.1 ± 1.2
364 K, 2872 kPa, Fluid (supercritical or subcritical phases) | 699.8 ± 1.1
364 K, 6364.7 kPa, Liquid | 796.1 ± 1.2
366 K, 3226.1 kPa, Fluid (supercritical or subcritical phases) | 699.8 ± 1.1
366 K, 6895.5 kPa, Liquid | 796 ± 1.2
368 K, 3583.4 kPa, Fluid (supercritical or subcritical phases) | 699.7 ± 1.1
370 K, 1329.2 kPa, Gas | 49.9 ± 0.1
370 K, 2227.8 kPa, Gas | 99.8 ± 0.2
370 K, 3943.7 kPa, Fluid (supercritical or subcritical phases) | 699.7 ± 1.1
372 K, 4306.9 kPa, Fluid (supercritical or subcritical phases) | 699.7 ± 1.1
374 K, 4672.5 kPa, Fluid (supercritical or subcritical phases) | 699.6 ± 1.1
376 K, 5040.5 kPa, Fluid (supercritical or subcritical phases) | 699.6 ± 1.1
378 K, 5410 kPa, Fluid (supercritical or subcritical phases) | 699.5 ± 1.1
379 K, 3659.3 kPa, Gas | 408.6 ± 0.9
380 K, 1381.9 kPa, Gas | 49.9 ± 0.1
380 K, 2351.3 kPa, Gas | 99.8 ± 0.2
380 K, 3350.9 kPa, Gas | 199.9 ± 0.4
380 K, 3727.7 kPa, Gas | 408.6 ± 0.8
380 K, 5781.1 kPa, Fluid (supercritical or subcritical phases) | 699.5 ± 1.1
382 K, 6153.3 kPa, Fluid (supercritical or subcritical phases) | 699.5 ± 1.1
384 K, 6527.3 kPa, Fluid (supercritical or subcritical phases) | 699.4 ± 1.1
385 K, 3499.4 kPa, Gas | 199.9 ± 0.5
385 K, 4070.4 kPa, Gas | 408.5 ± 0.7
386 K, 6902.3 kPa, Fluid (supercritical or subcritical phases) | 699.4 ± 1.1
390 K, 1433.6 kPa, Gas | 49.9 ± 0.1
390 K, 2472.5 kPa, Gas | 99.7 ± 0.2
390 K, 3645.5 kPa, Gas | 199.8 ± 0.4
390 K, 4415.7 kPa, Gas | 408.4 ± 0.7
395 K, 3789.8 kPa, Gas | 199.8 ± 0.4
395 K, 4762.2 kPa, Gas | 408.3 ± 0.7
400 K, 1484.4 kPa, Gas | 49.8 ± 0.1
400 K, 2591.1 kPa, Gas | 99.7 ± 0.2
400 K, 3931.9 kPa, Gas | 199.7 ± 0.3
400 K, 5109.3 kPa, Gas | 408.2 ± 0.6
405 K, 4073 kPa, Gas | 199.7 ± 0.3
405 K, 5458.7 kPa, Gas | 408.1 ± 0.6
410 K, 1534.9 kPa, Gas | 49.8 ± 0.1
410 K, 2708 kPa, Gas | 99.6 ± 0.2
410 K, 4212.5 kPa, Gas | 199.6 ± 0.3
410 K, 5806.1 kPa, Gas | 407.9 ± 0.6
415 K, 4350.8 kPa, Gas | 199.5 ± 0.3
415 K, 6157.7 kPa, Gas | 407.7 ± 0.6
420 K, 1584.7 kPa, Gas | 49.7 ± 0.1
420 K, 2823 kPa, Gas | 99.5 ± 0.2
420 K, 4487.8 kPa, Gas | 199.4 ± 0.3
420 K, 6507.1 kPa, Gas | 407.5 ± 0.6
425 K, 4623.8 kPa, Gas | 199.2 ± 0.3
425 K, 6857.2 kPa, Gas | 407.2 ± 0.6
430 K, 1633.5 kPa, Gas | 49.7 ± 0.1
430 K, 2936 kPa, Gas | 99.3 ± 0.2
430 K, 4758.7 kPa, Gas | 199.1 ± 0.3

mass density
Details | Gas | Liquid
360.73 K | – | 723.7 ± 0.3 kg/m3
366.5 K | 182.7 ± 3 kg/m3 | –
369.78 K | 205.8 ± 3 kg/m3 | –
369.83 K | – | 644 ± 0.3 kg/m3
371.67 K | 231.2 ± 3 kg/m3 | –
371.85 K | – | 616.3 ± 0.3 kg/m3
374.16 K | – | 571.5 ± 0.5 kg/m3
374.31 K | 255.3 ± 3 kg/m3 | –
375.35 K | 287.6 ± 3 kg/m3 | –
376.38 K | – | 508.8 ± 1.2 kg/m3
376.41 K | 323.1 ± 3.1 kg/m3 | –
376.87 K | – | 451.6 ± 5.7 kg/m3
376.93 K | 408.8 ± 3.4 kg/m3 and 414.2 ± 3.5 kg/m3 | 414.2 ± 5.7 kg/m3
